{"source": "paper PMC11789008", "about": "(Proceedings of the National Academy of Sciences of the …, 2025)", "key": {"SARS-CoV-2 spike RBD, WT": {"biological_target": "SARS-CoV-2 spike RBD, WT (Severe acute respiratory syndrome coronavirus 2, UniProt P0DTC2)", "assay": "biochemical"}, "[1]": {"settings": "powder and solution form"}, "[2]": {"biological_target": "SARS-CoV-2 spike ectodomain trimer with the BA.2-type RBD (SARS-CoV-2) (UniProt P0DTC2)", "assay": "cryo-EM structure"}, "[3]": {"biological_target": "SARS-CoV-2 spike ectodomain trimer with the BA.5-type RBD (SARS-CoV-2) (UniProt P0DTC2)", "assay": "cryo-EM structure"}}, "note": "No end group written: not given here.", "data": [{"substance": "DKLWILQKIYEIMVRLDEEGHGEASLMVSDLIYEFMKRD [CeSPIACE]", "values": [{"measurement": "Kd", "setting": "SARS-CoV-2 spike RBD, WT", "value": "0.246 ± 0.002", "unit": "nM"}, {"measurement": "stability", "setting": "[1]", "value": "stability has been confirmed in powder and solution form"}]}, {"substance": "SARS-CoV-2 spike ectodomain trimer with the BA.2-type RBD (from UniProt P0DTC2 13-1208) (domain or fragment)", "values": [{"measurement": "stoichiometry N", "setting": "[2]", "value": 3}]}, {"substance": "SARS-CoV-2 spike ectodomain trimer with the BA.5-type RBD (from UniProt P0DTC2 13-1208) (domain or fragment)", "values": [{"measurement": "stoichiometry N", "setting": "[3]", "value": 3}]}]}
